Laboratory results taken from ChEMBL document CHEMBL4325834, “De Novo Molecular Design of a Novel Octapeptide That Inhibits In Vivo Melanogenesis and Has Great Transdermal Ability” (J Med Chem, 2018).
Activity calls are given as the source filed them. The calls are words filed in the database; no cut-off is given here. Where a SMILES comes first, the peptide text is derived from it.

Columns and labels:
[1] = test system: LAD2; test: (§1) Proinflammatory activity in human LAD2 cells assessed as increase in mast-cell degranulation by measuring beta-hexosaminidase release at 0.5 mM preincubated for 30 mins followed 4-nitrophenyl-N-acetyl-beta-D-glucosaminide substrate addition and measured after 90 mins by fluorescence-based microplate reader analysis relative to control; format: ADME; settings: lad2, 1.5 h, 500 µM
[2] = target: T1, Tyrosinase (Mus musculus) (UniProt P11344); test: Inhibition of TYR activity in mouse B16 cells assessed as increase in whitening at 20 uM preincubated for 72 hrs followed L-dopa substrate addition and measured after 4 hrs by fluorescence microscopy; format: cell-based
T1 sequence (whole entry): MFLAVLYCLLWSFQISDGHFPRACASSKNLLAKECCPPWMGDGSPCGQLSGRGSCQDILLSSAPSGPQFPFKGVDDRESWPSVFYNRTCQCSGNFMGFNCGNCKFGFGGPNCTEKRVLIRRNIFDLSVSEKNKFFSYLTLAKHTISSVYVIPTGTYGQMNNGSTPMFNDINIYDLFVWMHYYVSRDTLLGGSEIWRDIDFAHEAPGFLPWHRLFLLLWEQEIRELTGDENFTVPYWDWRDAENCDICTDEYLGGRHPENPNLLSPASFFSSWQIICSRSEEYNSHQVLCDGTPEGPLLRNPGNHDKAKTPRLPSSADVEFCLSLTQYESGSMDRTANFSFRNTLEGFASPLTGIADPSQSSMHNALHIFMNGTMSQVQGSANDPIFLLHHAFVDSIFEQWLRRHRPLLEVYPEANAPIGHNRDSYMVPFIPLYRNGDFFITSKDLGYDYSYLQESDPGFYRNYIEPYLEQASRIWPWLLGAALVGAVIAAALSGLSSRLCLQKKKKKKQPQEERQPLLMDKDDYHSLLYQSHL

[3] = target: T2, Tyrosinase (Agaricus bisporus) (UniProt O42713); test: Inhibition of mushroom tyrosinase using L-dopa as substrate assessed as reduction in L-dopa oxidation at IC50 by spectrophotometry
T2 sequence (whole entry): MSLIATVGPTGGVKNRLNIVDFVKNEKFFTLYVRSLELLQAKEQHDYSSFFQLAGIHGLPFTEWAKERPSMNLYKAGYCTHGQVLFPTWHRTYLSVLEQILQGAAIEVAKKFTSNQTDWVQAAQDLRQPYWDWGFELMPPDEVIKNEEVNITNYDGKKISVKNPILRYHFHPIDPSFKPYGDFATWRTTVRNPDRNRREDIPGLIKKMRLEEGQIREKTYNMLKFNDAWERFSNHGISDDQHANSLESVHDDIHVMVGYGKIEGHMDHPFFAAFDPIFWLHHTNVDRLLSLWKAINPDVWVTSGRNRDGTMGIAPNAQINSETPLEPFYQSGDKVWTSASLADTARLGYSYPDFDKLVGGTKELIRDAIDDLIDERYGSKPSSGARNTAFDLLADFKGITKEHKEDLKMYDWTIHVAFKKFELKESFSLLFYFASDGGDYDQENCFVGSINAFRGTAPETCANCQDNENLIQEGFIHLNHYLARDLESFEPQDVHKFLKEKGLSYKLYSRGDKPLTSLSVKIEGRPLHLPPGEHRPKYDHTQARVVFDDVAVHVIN

[4] = Hemolytic activity against human erythrocytes assessed as amount of hemoglobin released from lysed cells up to 150 uM relative to control; format: ADME, cell-based, Erythrocyte; settings: read-out: Activity
[5] = test system: Cavia porcellus; test: Protection against UVB-induced pigmentation in Dunkin-Hartley guinea pig assessed as increase in whitening at 1 to 2 mM using PG solvent administered topically post UV radiation for 5 days/week for two consecutive weeks for a total 10 days by Fontana-Masson-staining based assay; format: functional, organism-based
[6] = target: MAP kinase p38 (Mus musculus) (UniProt P47811+O08911+Q9WUI1+Q9Z1B7); test: Effect on p38 phosphorylation in mouse B16 cells up to 80 uM after 72 hrs by Western blot analysis; format: cell-based
[7] = Drug uptake in skin basal layer of brown guinea pig at 2 mM dosed topically after 2 to 4 hrs using FITC-labelled compound by H and E staining-based fluorescence microscopy; format: ADME, organism-based, Cavia porcellus; settings: in vivo, topical_or_ocular, 2000 µM
[8] = test system: B16; test: Downregulation of MITF protein expression in mouse B16 cells after 72 hrs by Western blot analysis; format: functional, cell-based
[9] = test system: Cavia porcellus; test: Anti-melanogenic activity in UVB-induced pigmentation Dunkin-Hartley guinea pig model assessed as inhibition of UV-induced melanin production in epidermis basal layer at 1 to 2 mM administered topically using CP hydrogel 6 hrs before UV radiation every day for 2 weeks by Fontana-Masson-staining based assay; format: functional, organism-based
[10] = test system: B16; test: Downregulation of TYR protein expression in mouse B16 cells after 72 hrs by Western blot analysis; format: functional, cell-based
[11] = test system: LAD2; test: as §1, with “1” for “0.5”; format: ADME; settings: lad2, 1.5 h, 1000 µM
[12] = test system: LAD2; test: as §1, with “0.25” for “0.5”; format: ADME; settings: lad2, 1.5 h, 250 µM

Activity [1]: 7.15%
inhibition [2]: Active
inhibition [3]: Active
Activity [6]: inactive
Drug uptake [7]: Not Active
Activity [11]: 9.41%
Activity [12]: 7.19%
SMILES: CC(C)[C@H](NC(=O)[C@H](CCCNC(=N)N)NC(=O)[C@H](Cc1ccccc1)NC(=O)[C@H](CS)NC(=O)[C@H](CCCNC(=N)N)NC(=O)[C@@H](N)[C@@H](C)O)C(=O)N[C@@H](CS)C(=O)N[C@@H](CO)C(=O)O (H-TRCFRVCS-OH)
hemolysis [4]: 1%
Activity [5]: Active
inhibition [8]: Active
Activity [9]: Active
inhibition [10]: Active
